Data on eleven compounds can be found in BindingDB's records for doi:10.1016/j.bioorg.2016.11.008 (Beni-Suef University, 2017).

“And” between values parts separate entries of the source, which are not always exact repeats. Equal entries are not always repeated.

The target in experiment [1] is T1, Prostaglandin G/H synthase 1 (Ovis aries, UniProt P05979).
T1 sequence (P05979 whole entry): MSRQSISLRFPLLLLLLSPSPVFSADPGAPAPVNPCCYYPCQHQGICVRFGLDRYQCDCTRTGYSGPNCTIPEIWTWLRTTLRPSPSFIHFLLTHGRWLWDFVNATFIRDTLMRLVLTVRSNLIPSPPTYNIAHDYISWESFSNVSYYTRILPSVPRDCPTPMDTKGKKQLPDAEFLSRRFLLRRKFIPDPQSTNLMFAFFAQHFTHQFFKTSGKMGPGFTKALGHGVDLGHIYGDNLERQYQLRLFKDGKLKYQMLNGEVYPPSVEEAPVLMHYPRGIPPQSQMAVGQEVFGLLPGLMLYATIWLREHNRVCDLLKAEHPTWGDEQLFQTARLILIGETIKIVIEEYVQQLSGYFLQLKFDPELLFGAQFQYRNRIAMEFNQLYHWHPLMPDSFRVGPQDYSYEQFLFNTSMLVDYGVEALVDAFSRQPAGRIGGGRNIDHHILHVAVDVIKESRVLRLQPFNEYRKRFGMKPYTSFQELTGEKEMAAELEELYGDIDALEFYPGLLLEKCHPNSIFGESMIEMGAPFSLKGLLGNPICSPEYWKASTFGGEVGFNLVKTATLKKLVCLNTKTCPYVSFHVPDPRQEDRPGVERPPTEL
Kind of experiment: COX-1/COX-2 Inhibition Colorimetric Assay. As to the method:
(§1) The in vitro inhibition of ovine COX-1 and COX-2 was measured using an enzyme immuno assay (EIA) kit (Cayman Chemical, Ann Arbor, MI, USA) according to the manufacturer's instructions and as reported before [Roschek et al., J. Med. Food., 12:615-623].

Experiment [2] addresses T2, Prostaglandin G/H synthase 2 (Ovis aries, UniProt P79208).
T2 sequence (P79208 whole entry): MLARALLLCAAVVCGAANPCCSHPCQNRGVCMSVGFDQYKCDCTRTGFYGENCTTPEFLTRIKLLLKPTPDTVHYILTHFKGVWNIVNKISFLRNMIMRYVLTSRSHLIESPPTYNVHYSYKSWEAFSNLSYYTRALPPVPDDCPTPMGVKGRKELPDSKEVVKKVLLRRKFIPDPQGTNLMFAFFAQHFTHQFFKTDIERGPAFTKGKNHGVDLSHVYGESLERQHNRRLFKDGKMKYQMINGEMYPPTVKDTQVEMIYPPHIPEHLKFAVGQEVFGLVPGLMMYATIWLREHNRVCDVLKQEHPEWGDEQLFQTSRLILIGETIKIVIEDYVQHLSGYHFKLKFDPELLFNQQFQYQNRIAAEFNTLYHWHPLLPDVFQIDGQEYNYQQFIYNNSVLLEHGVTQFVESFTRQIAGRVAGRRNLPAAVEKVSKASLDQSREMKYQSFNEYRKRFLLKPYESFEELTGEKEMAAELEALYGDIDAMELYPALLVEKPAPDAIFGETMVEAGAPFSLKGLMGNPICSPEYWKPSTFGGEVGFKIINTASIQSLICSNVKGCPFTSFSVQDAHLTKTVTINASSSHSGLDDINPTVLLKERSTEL
The experiment in a line: COX-1/COX-2 Inhibition Colorimetric Assay. The protocol: as §1

One may read the IC50 as the concentration at which inhibition is half-maximal. For the compound `COc1ccc(C2CC(c3ccc(Cl)cc3)=NN2c2ccc(S(N)(=O)=O)cc2)cc1` (configuration not stated), the 50% inhibitory concentration (IC50) in experiment [1] came to 6.52 µM; in experiment [2], 0.74 µM.
For the compound `CS(=O)(=O)c1ccc(N2N=C(c3ccc(Cl)cc3)CC2c2ccc(Cl)cc2)cc1` (configuration not stated) [3,5-Bis-(4-chloro-phenyl)-1-(4-methanesulfonyl-phenyl)-4,5-dihydro-1H-pyrazole (10j)], the results for the IC50 in experiment [1] and in experiment [2] were 9.89 µM and 1.52 µM, respectively.
With `COc1cc(C2CC(c3ccc(Br)cc3)=NN2c2ccc(S(C)(=O)=O)cc2)cc(OC)c1OC` (configuration not stated) [3-(4-Bromo-phenyl)-1-(4-methanesulfonyl-phenyl)-5-(3,4,5-trimethoxy-phenyl)-4,5-dihydro-1H-pyrazole (10g)], the IC50 in experiment [1] was determined as 8.65 µM; in experiment [2] it was 0.98 µM.
For the compound `COc1ccc(C2CC(c3ccc(Br)cc3)=NN2c2ccc(S(C)(=O)=O)cc2)cc1` (configuration not stated) [3-(4-Bromo-phenyl)-1-(4-methanesulfonyl-phenyl)-5-(4-methoxy-phenyl)-4,5-dihydro-1H-pyrazole (10k)], the concentration for half-maximal inhibition (IC50) in experiment [1] was 4.85 µM; in experiment [2], 0.63 µM.
As to `COc1cc(C2CC(c3ccc(Cl)cc3)=NN2c2ccc(S(C)(=O)=O)cc2)cc(OC)c1OC` (configuration not stated) [3-(4-Chloro-phenyl)-1-(4-methanesulfonyl-phenyl)-5-(3,4,5-trimethoxy-phenyl)-4,5-dihydro-1H-pyrazole (10h)], the IC50 is 3.87 µM and 8.34 µM in experiment [1]; 0.42 µM and 2.98 µM in experiment [2].
Regarding `COc1ccc(C2CC(c3ccc(Cl)cc3)=NN2c2ccc(S(C)(=O)=O)cc2)cc1` (configuration not stated) [3-(4-Chloro-phenyl)-1-(4-methanesulfonyl-phenyl)-5-(4-methoxy-phenyl)-4,5-dihydro-1H-pyrazole (10l)], the IC50 in experiment [1] came to 10.2 µM; in experiment [2], 3.41 µM.
Regarding `COc1cc(C2CC(c3ccc(Br)cc3)=NN2c2ccc(S(N)(=O)=O)cc2)cc(OC)c1OC` (configuration not stated) [4-[3-(4-Bromo-phenyl)-5-(3,4,5-trimethoxy-phenyl)-4,5-dihydropyrazol-1-yl]-benzene-sulfonamide (10a)], the IC50 in experiment [1] turned out to be 7.52 µM; in experiment [2], 0.78 µM.
Regarding `NS(=O)(=O)c1ccc(N2N=C(c3ccc(Br)cc3)CC2c2ccc(Cl)cc2)cc1` (configuration not stated) [4-[3-(4-Bromo-phenyl)-5-(4-chloro-phenyl)-4,5-dihydro-pyrazol-1-yl]-benzene-sulfonamide (10c)], the values for the IC50 in experiment [1] and in experiment [2] were 6.87 µM and 1.43 µM, respectively.
In the same order, the values of `COc1cc(C2CC(c3ccc(Cl)cc3)=NN2c2ccc(S(N)(=O)=O)cc2)cc(OC)c1OC` (configuration not stated) [4-[3-(4-Chloro-phenyl)-5-(3,4,5-trimethoxy-phenyl)-4,5-dihydropyrazol-1-yl]-benzene-sulfonamide (10b)] are 3.41 µM and 0.22 µM.
In the same order, the values of `NS(=O)(=O)c1ccc(N2N=C(c3ccc(Cl)cc3)CC2c2ccc(Cl)cc2)cc1` (configuration not stated) [4-[3-(4-Chloro-phenyl)-5-(4-chloro-phenyl)-4,5-dihydro-pyrazol-1-yl]-benzene-sulfonamide (10d)] are 5.11 µM and 0.9 µM.
In the case of `COc1ccc(C2CC(c3ccc(Br)cc3)=NN2c2ccc(S(N)(=O)=O)cc2)cc1` (configuration not stated) [UNM-0000306138], the IC50 in experiment [1] came to 5.17 µM; in experiment [2], 0.63 µM.
